Measurements reported in patent US12691112B2, “FGFR tyrosine kinase inhibitors for the treatment of urothelial carcinoma” (Janssen Pharmaceutica NV, priority 2019, dated 2026).

Assays:
[1] = 10 patients, nine with disease progression on prior immunotherapy; cited from earlier work
urothelial cancer = experiment: Best response to prior chemotherapy before study enrolment, per investigator assessment; assay type: in vivo, human; conditions: first-line chemotherapy before study enrolment; across all regimens
Description: Across all regimens, 184 patients had received first-line platinum-based chemotherapy, 83 had received second-line chemotherapy, and 24 had received third-line chemotherapy before study enrolment.

| Compound | patients who responded [1] [%] | best ORR per investigator assessment (urothelial cancer) [%] |
| --- | --- | --- |
| COCc1c(-c2cc3cc(C)cc(OC)c3s2)c2c(N)ncnn2c1CN1CCNC(=O)C1 [rogaratinib] | 30 |  |
| gemcitabine plus cisplatin |  | 35 |
